Measurements published in patent US20240366679A1, “METHOD FOR TREATING IMMUNE DISEASES USING CALCINEURIN INHIBITOR AND STEM CELLS” (KANGSTEM BIOTECH CO., LTD., priority 2021, published 2024).
“Also recorded” adds a separate entry of the source.

How the values were obtained:
[1] = system: hUCB-MSC surface markers (CD45, CD34, CD36, CD105, CD29, CD73); assay: Flow cytometry of surface markers of hUCB-MSC; type: cell-based; details: pimecrolimus 100 ng/ml, 3 days, FIG. 2E
Description: Lastly, the stem cells (hUCB-MSC) were cultured and treated with 100 ng/ml of pimecrolimus for 3 days, and then the expression levels of surface markers (CD45, CD34, CD36, CD105, CD29, CD73) of hUCB-MSC were compared using flow cytometry. (FIG. 2E).

[2] = system: hUCB-MSC; assay: Proliferative capacity of hUCB-MSC; type: cell-based; details: pimecrolimus 0.01 to 100 ng/ml, 3 days; FIG. 2B
Description: Next, the stem cells (hUCB-MSC) were cultured and treated with various concentrations of pimecrolimus for 3 days, and then the change in proliferative capacity of hUCB-MSC were compared (FIG. 2B).

[3] = system: hUCB-MSC; assay: Cell cycle analysis of hUCB-MSC; type: cell-based; details: pimecrolimus 0.01 to 100 ng/ml, 3 days; FIG. 2C
Description: Next, the stem cells (hUCB-MSC) were cultured and treated with various concentrations of pimecrolimus for 3 days, and then the change in cell cycle profile of hUCB-MSC were compared using cell cycle analysis (FIG. 2C).

[4] = system: PGE2 expressed in hUCB-MSCs; assay: PGE2 ELISA of hUCB-MSC supernatant; type: cell-based, human; details: pimecrolimus 0.01 to 100 ng/ml, 72 hours, FIG. 4B
Description: (§1) Specifically, hUCB-MSCs were seeded in a 6-well cell culture plate at a density of 1.5×10^5 cells per well. After 24 hours of incubation, hUCB-MSCs were treated with pimecrolimus at various concentrations and further incubated for 72 hours. After the incubation was completed, the supernatant was collected by centrifugation and the thus-obtained supernatant was applied to Human […] Quantikine ELISA (R&D Systems, Minneapolis, MN, USA) and Human PGE2. Quantikine ELISA (R&D Systems) to analyze the expression level of TGF-β or prostaglandin E2 (PGE2) (FIGS. 4A and 4B).

[5] = system: hUCB-MSC; assay: Cellular morphology of hUCB-MSC; type: cell-based; details: pimecrolimus 0.01 to 100 ng/ml, 3 days; FIG. 2D
Description: Next, the stem cells (hUCB-MSC) were cultured and treated with various concentrations of pimecrolimus for 3 days, and then the change in cellular morphology of hUCB-MSC were compared (FIG. 2D).

[6] = system: TGF-β expressed in hUCB-MSCs; assay: TGF-β ELISA of hUCB-MSC supernatant; type: cell-based, human; details: pimecrolimus 0.01 to 100 ng/ml, 72 hours, FIG. 4A
Description: as §1

[7] = system: COX2 expressed in hUCB-MSCs; assay: Western blot of COX2 in hUCB-MSC lysate; type: cell-based; details: pimecrolimus 0.01 to 100 ng/ml, 72 hours, GAPDH internal control, FIG. 4C
Description: hUCB-MSCs treated with pimecrolimus were obtained according to the method of Example 3-2, centrifuged to collect the precipitated cells, and then disrupted to obtain cell lysate. Subsequently, Western blot analysis was performed using the thus-obtained cell lysate and COX2 antibodies (FIG. 4C). In particular, GAPDH was used as an internal control.

[8] = system: PBMC cells treated with Concanavalin A (ConA); assay: MLR analysis, immunosuppressive activity on ConA-treated PBMC; type: cell-based
Description: PBMC cells treated with Concanavalin A (ConA) were cultured and treated with pimecrolimus and mesenchymal stem cells (hUCB-MSC) individually or in combination, and then the immunosuppressive activity measured in each experimental group was compared (FIG. 3). In particular, PBMC cells that were not treated with ConA, not co-cultured with hUCB-MSC, and not treated with pimecrolimus were used as the negative control (NC), and as the positive control (PC) treated with ConA, PBMC cells that were not co-cultured with hUCB-MSC and not treated with pimecrolimus were used as the positive control (PC).
Specifically, PBMC cells treated with Concanavalin A (ConA) were cultured and treated with pimecrolimus and hUCB-MSC individually or in combination, and then the immunosuppressive activity measured in each experimental group was compared.
In particular, 10 experimental groups were set according to the combination pattern of pimecrolimus and hUCB-MSC (Table 1)

[9] = system: hUCB-MSC; assay: MTT assay, cell viability of hUCB-MSC; type: cell-based; details: pimecrolimus various concentrations, 3 days, FIG. 2A
Description: First, the stem cells (hUCB-MSC) were cultured and treated with various concentrations of pimecrolimus for 3 days, and then the change in cell viability of hUCB-MSC were compared using the MTT assay (FIG. 2A).

With `CC[C@@H]1/C=C(\C)C[C@H](C)C[C@H](OC)[C@H]2O[C@@](O)(C(=O)C(=O)N3CCCC[C@H]3C(=O)O[C@H](/C(C)=C/[C@@H]3CC[C@H](Cl)[C@H](OC)C3)[C@H](C)[C@@H](O)CC1=O)[C@H](C)C[C@@H]2OC` [pimecrolimus] the “expression levels of surface markers of hUCB-MSC” value [1] was “did not change the expression levels of surface markers”, the “change in proliferative capacity of hUCB-MSC” value [2] was “did not change the proliferative capacity” and the “change in cell cycle profile of hUCB-MSC” value [3] was “did not change the cell cycle profile”. For the same molecule, the “level of PGE2 expressed in hUCB-MSCs” value [4] was “rapidly reduced in proportion to the treatment concentrations”, the “change in cellular morphology of hUCB-MSC” value [5] was “did not change the cellular morphology” and the “level of TGF-β expressed in hUCB-MSCs” value [6] was “did not show a significant change”. For the same molecule, the “level of COX2 expressed in hUCB-MSCs” value [7] was “rapidly reduced in proportion to the treatment concentrations; also recorded: inhibit the expression of COX2”, the “immune activity of ConA-treated PBMC (immunosuppressive activity)” value ([8]; Example 3-1, treated individually or in combination, versus ConA positive control, FIG. 3) was “the immune activity was suppressed” and the “immunosuppressive activity, separate treatment” value ([8]; each treated alone, 3 to 7 days or 5 to 7 days (Experimental Groups 2 and 3; 5 and 9), FIG. 5A) was “comparatively superior over the immunosuppressive activity of hUCB-MSCs”. The “change in cell viability of hUCB-MSC” value [9] was “did not change the cell viability”.
